According to patent US20120157401A1, “METHODS FOR TREATING NEUROFIBROMATOSIS” (PTC Therapeutics, Inc., priority 2009, published 2012):
pEC50: −log10 of the molar value.

Each compound was assayed on hypoxia-inducible endogenous VEGF expression (assay: Hypoxia-inducible endogenous VEGF expression ELISA in HeLa cells, dose-response EC50 (Table 3)). Settings: HeLa cells, hypoxic conditions (1% O2), 24-48 hours, VEGF in conditioned media; read-out: ELISA EC50.
Type: cell-based, human
Description: The ability of the Compounds to modulate hypoxia-inducible endogenous VEGF expression may be analyzed as follows. VEGF protein levels may be monitored by an ELISA assay (R&D Systems). Briefly, HeLa cells may be cultured for 24-48 hours under hypoxic conditions (1% O2, 5% CO2, balanced with nitrogen) in the presence or absence of a Compound. The conditioned media may then be assayed by ELISA, and the concentration of VEGF calculated from the standard ELISA curve of each assay.
A dose-response analysis may be performed using the ELISA assay and conditions described above. The conditions for the dose-response ELISA are analogous to those described above. A series of, e.g., seven different concentrations may be analyzed. In parallel, a dose-response cytotoxicity assay may be performed using Cell Titer Glo (Promega) under the same conditions as the ELISA to ensure that the inhibition of VEGF expression was not due to the cytotoxicity.

Structure (SMILES) | pEC50
O=C(Oc1ccc(F)cc1)N1CCc2c([nH]c3ccc(Cl)cc23)C1c1ccc(OCC(O)Cn2ccnn2)cc1 (centres unmarked) [Compound 1066] | > 8.10
C=CCOc1ccc(C2c3[nH]c4ccc(Cl)cc4c3CCN2C(=O)Oc2ccc(Cl)cc2)cc1 (centres unmarked) [Compound 400] | > 8.10
O=C(Oc1ccc(Cl)cc1)N1CCc2c([nH]c3ccc(Cl)cc23)C1c1ccc(OCCCCn2ccnc2)cc1 (centres unmarked) [Compound 1001] | 7.40 to 8.10

Same assay, conditions: Homo sapiens, HeLa, read-out: ELISA EC50 μM

Structure (SMILES) | EC50
O=C(Oc1ccc(F)cc1)N1CCc2c([nH]c3ccc(Cl)cc23)C1c1ccc(OCCCCNCCCn2ccnc2)cc1 (centres unmarked) [Compound 741] | 0.04 to 0.2 µM
COCCN1CCN(C(=O)COc2ccc(C3c4[nH]c5ccc(Cl)cc5c4CCN3C(=O)Oc3ccc(OC)cc3)cc2)CC1 (centres unmarked) [Compound 1025] | 0.04 to 0.2 µM
CN1CCN(CCCOc2cccc(C3c4[nH]c5ccc(Cl)cc5c4CCN3C(=O)Oc3ccc(F)cc3)c2)CC1 (centres unmarked) [Compound 1113] | 0.2 to 1 µM
O=C(Oc1ccc(F)cc1)N1CCc2c([nH]c3ccc(Cl)cc23)C1c1ccc(OCC(O)CN2CCSCC2)cc1 (centres unmarked) [Compound 925] | < 0.008 µM
COc1cc(C2c3[nH]c4ccc(Cl)cc4c3CCN2C(=O)Oc2ccc(Cl)cc2)ccc1OCCCCN1CCOCC1 (centres unmarked) [Compound 1094] | 0.008 to 0.04 µM
CN1CCCC(COc2ccc(C3c4[nH]c5ccc(Cl)cc5c4CCN3C(=O)Oc3ccccc3Cl)cc2)C1 (centres unmarked) [Compound 976] | 0.04 to 0.2 µM
O=C(Oc1ccc(Cl)cc1)N1CCc2c([nH]c3ccc(Cl)cc23)C1c1ccc(OCC(O)CN2CCSCC2)cc1 (centres unmarked) [Compound 923] | < 0.008 µM
CN(C)CCCOc1ccc(C2c3[nH]c4ccc(Cl)cc4c3CCN2C(=O)Oc2ccccc2)cc1 (centres unmarked) [Compound 493] | 0.04 to 0.2 µM
COCCCNCCCCCCOc1ccc(C2c3[nH]c4ccc(Cl)cc4c3CCN2C(=O)Oc2ccc(F)cc2)cc1 (centres unmarked) [Compound 775] | < 0.008 µM
O=C(Oc1ccc(Cl)cc1)N1CCc2c([nH]c3ccc(Cl)cc23)[C@@H]1c1ccc(OCCCN(CCO)CCO)cc1 [Compound 1258] | < 0.008 µM
CNCC(O)COc1ccc(C2c3[nH]c4ccc(Cl)cc4c3CCN2C(=O)Oc2ccc(Cl)cc2)cc1 (centres unmarked) [Compound 850] | 0.04 to 0.2 µM
CN1CCN(CCCCCCOc2ccc(C3c4[nH]c5ccc(Cl)cc5c4CCN3C(=O)Oc3ccc(Cl)cc3)cc2)CC1 (centres unmarked) [Compound 788] | 0.008 to 0.04 µM
O=C(Oc1ccc(Cl)cc1)N1CCc2c([nH]c3ccc(Cl)cc23)C1c1ccc(OCCCNCCO)cc1 (centres unmarked) [Compound 1183] | < 0.008 µM
O=C(Oc1ccc(Cl)cc1)N1CCc2c([nH]c3ccc(Cl)cc23)[C@@H]1c1ccc(OCCCNCCO)cc1 [Compound 1257] | 0.008 to 0.04 µM
CC(C)NCCCCCCOc1ccc(C2c3[nH]c4ccc(Cl)cc4c3CCN2C(=O)Oc2ccc(F)cc2)cc1 (centres unmarked) [Compound 774] | 0.008 to 0.04 µM

Same assay, conditions: Homo sapiens; HeLa cells, hypoxic conditions (1% O2), 24-48 hours, VEGF in conditioned media; read-out: ELISA EC50

Structure (SMILES) | pEC50
N#Cc1ccc(C2c3[nH]c4ccc(Cl)cc4c3CCN2C(=O)Oc2ccc(Cl)cc2)cc1 (centres unmarked) [Compound 350] | > 8.10
CC1(C)OC[C@H](CCOc2ccc(C3c4[nH]c5ccc(Cl)cc5c4CCN3C(=O)Oc3ccc(F)cc3)cc2)O1 (some centres unmarked) [Compound 1169] | > 8.10
COc1ccc(OC(=O)N2CCc3c([nH]c4ccc(Cl)cc34)C2c2ccc(OC)cc2F)cc1 (centres unmarked) [Compound 1267] | 7.40 to 8.10
O=C(Oc1ccc(F)cc1)N1CCc2c([nH]c3ccc(Cl)cc23)C1c1ccc(OCCCn2ccnc2)cc1 (centres unmarked) [Compound 889] | > 8.10
NC(=O)COc1ccc(C2c3[nH]c4ccc(Cl)cc4c3CCN2C(=O)Oc2ccccc2Cl)cc1 (centres unmarked) [Compound 1213] | 6.70 to 7.40
C=CCOc1ccc(C2c3[nH]c4ccc(Cl)cc4c3CCN2C(=O)Oc2ccc(F)cc2)cc1 (centres unmarked) [Compound 409] | > 8.10
COc1ccc(OC(=O)N2CCc3c([nH]c4ccc(Cl)cc34)C2c2ccc(OCCCn3cncn3)c(OC)c2)cc1 (centres unmarked) [Compound 1151] | 6.70 to 7.40
O=C(Oc1ccccc1)N1CCc2c([nH]c3ccc(Cl)cc23)C1c1ccc(OCC[C@H](O)CO)cc1 (some centres unmarked) [Compound 1178] | > 8.10
COc1ccc(C2c3[nH]c4ccc(C)cc4c3CCN2C(=O)Oc2ccc(Cl)cc2)cc1 (centres unmarked) [Compound 341] | 6.70 to 7.40
COCCOc1ccc(C2c3[nH]c4ccc(Cl)cc4c3CCN2C(=O)Oc2ccccc2)cc1 (centres unmarked) [Compound 436] | > 8.10
CC(CO)(CO)COc1ccc([C@H]2c3[nH]c4ccc(Cl)cc4c3CCN2C(=O)Oc2ccc(Cl)cc2)cc1 [Compound 1230] | > 8.10
O=C(Oc1ccc(F)cc1)N1CCc2c([nH]c3ccc(Cl)cc23)C1c1ccc(OCC2CO2)cc1 (centres unmarked) [Compound 967] | 7.40 to 8.10
Cc1ccc(OC(=O)N2CCc3c([nH]c4ccc(Cl)cc34)C2c2ccc(OCCCCl)cc2)cc1 (centres unmarked) [Compound 915] | > 8.10
COCCOCCOc1ccc(C2c3[nH]c4ccc(Cl)cc4c3CCN2C(=O)Oc2ccc([N+](=O)[O-])cc2)cc1 (centres unmarked) [Compound 681] | 7.40 to 8.10
O=C(Oc1ccc(Cl)cc1)N1CCc2c([nH]c3ccc(Cl)cc23)[C@@H]1c1ccc(OCCCCl)cc1 [Compound 1128] | > 8.10
Cc1ccc(OC(=O)N2CCc3c([nH]c4ccc(Cl)cc34)C2c2ccc(OCC[C@H]3COC(C)(C)O3)cc2)cc1 (some centres unmarked) [Compound 1170] | > 8.10
O=C(Oc1ccc(Cl)cc1)N1CCc2c([nH]c3ccc(Cl)cc23)C1c1ccc(S(=O)(=O)N2CCOCC2)cc1 (centres unmarked) [Compound 346] | 7.40 to 8.10
COc1ccc(C2c3[nH]c4ccc(Cl)cc4c3CCN2C(=O)Oc2ccc(F)cc2)cc1 (centres unmarked) [Compound 401] | > 8.10
O=C(Oc1ccc(F)cc1)N1CCc2c([nH]c3ccc(Cl)cc23)C1c1ccc(OCCn2cccn2)cc1 (centres unmarked) [Compound 836] | 7.40 to 8.10
COC(=O)c1ccc(C2c3[nH]c4ccc(Br)cc4c3CCN2C(=O)Oc2ccc(Cl)cc2)cc1 (centres unmarked) [Compound 591] | > 8.10
COc1ccc(C2c3[nH]c4ccc(Cl)cc4c3CCN2C(=O)Oc2ccc(Cl)cc2)cc1OCCCn1cncn1 (centres unmarked) [Compound 1090] | 6.00 to 6.70
COc1ccc(C2c3[nH]c4ccc(OC)cc4c3CCN2C(=O)Oc2ccc(Cl)cc2)cc1 (centres unmarked) [Compound 614] | 6.00 to 6.70
O=C(Oc1ccc(F)cc1)Oc1ccc(C2c3[nH]c4ccc(Cl)cc4c3CCN2C(=O)Oc2ccc(F)cc2)cc1 (centres unmarked) [Compound 576] | 6.70 to 7.40
COc1ccc(C2c3[nH]c4ccc(Cl)cc4c3CCN2C(=O)Oc2ccc(C)cc2)cc1 (centres unmarked) [Compound 17] | > 8.10
COc1ccc(OC(=O)N2CCc3c([nH]c4ccc(Cl)cc34)C2c2ccc(OCC(=O)N3CCOCC3)cc2)cc1 (centres unmarked) [Compound 1027] | 6.70 to 7.40

Same assay, conditions: Homo sapiens; HeLa cells, hypoxic conditions (1% O2), VEGF ELISA of conditioned media; read-out: ELISA EC50

Structure (SMILES) | pEC50
Cc1ccc(OC(=O)N2CCc3c([nH]c4ccc(Cl)cc34)[C@@H]2c2ccc(OCCC(O)CNS(C)(=O)=O)cc2)cc1 (some centres unmarked) [Compound 1668] | 7.40 to 8.10
CN1C(=O)CN(CCCOc2ccc(C3c4[nH]c5ccc(Cl)cc5c4CCN3C(=O)Oc3ccc(Cl)cc3)cc2)C1=O (centres unmarked) [Compound 1673] | > 8.10
COCCOC(=O)NCC(O)COc1ccc(C2c3[nH]c4ccc(Cl)cc4c3CCN2C(=O)Oc2ccc(Cl)cc2)cc1 (centres unmarked) [Compound 1564] | > 8.10
O=C(Oc1ccc(Cl)cc1)N1CCc2c([nH]c3ccc(Br)cc23)C1c1ccc(OCC(O)CO)cc1 (centres unmarked) [Compound 1344] | > 8.10
CC(=O)Oc1ccc([C@@H]2c3[nH]c4ccc(Cl)cc4c3CCN2C(=O)Oc2ccc(Cl)cc2)cc1 [Compound 1539] | 6.70 to 7.40
O=C(Oc1ccc(F)cc1)N1CCc2c([nH]c3ccc(Cl)cc23)[C@@H]1c1ccc(OC2CCOCC2)cc1 [Compound 1604] | > 8.10
[H]/N=c1\sccn1CCOc1ccc(C2c3[nH]c4ccc(Cl)cc4c3CCN2C(=O)Oc2ccc(F)cc2)cc1 (centres unmarked) [Compound 1391] | > 8.10
CC(C)S(=O)(=O)NCC(O)COc1ccc(C2c3[nH]c4ccc(Cl)cc4c3CCN2C(=O)Oc2ccc(F)cc2)cc1 (centres unmarked) [Compound 1557] | 6.00 to 6.70
O=C(Oc1ccc(Cl)cc1)N1CCc2c([nH]c3ccc(Cl)cc23)[C@@H]1c1ccc(OC2CCOCC2)cc1 [Compound 1605] | > 8.10
O=C(Oc1ccc(Cl)cc1)N1CCc2c([nH]c3ccc(Cl)cc23)[C@@H]1c1ccc(Oc2cnccn2)cc1 [Compound 1571] | > 8.10
O=C(Oc1ccc(F)cc1)N1CCc2c([nH]c3ccc(Br)cc23)C1c1ccc(OCC[C@H](O)CO)cc1 (some centres unmarked) [Compound 1348] | > 8.10
Cc1ccc(OC(=O)N2CCc3c([nH]c4ccc(Cl)cc34)[C@@H]2c2ccc(OCCC(O)CNS(=O)(=O)C3CC3)cc2)cc1 (some centres unmarked) [Compound 1647] | > 8.10
O=C(Oc1ccc(Cl)cc1)N1CCc2c([nH]c3ccc(Cl)cc23)[C@@H]1c1ccc(OCc2cn(C3OC(CO)C(O)C(O)C3O)nn2)cc1 (some centres unmarked) [Compound 1674] | 6.00 to 6.70
[H]/N=c1\sccn1CCOc1ccc(C2c3[nH]c4ccc(Cl)cc4c3CCN2C(=O)Oc2ccc(Cl)cc2)cc1 (centres unmarked) [Compound 1393] | > 8.10
CS(=O)(=O)Cc1cnc(Oc2ccc([C@H]3c4[nH]c5ccc(Cl)cc5c4CCN3C(=O)Oc3ccc(Cl)cc3)cc2)s1 [Compound 1702] | > 8.10
CC1(C)OC[C@H](CCOc2ccc([C@@H]3c4[nH]c5ccc(Cl)cc5c4CCN3C(=O)Oc3ccc(Cl)cc3)cc2)O1 [Compound 1331] | < 6.00
[H]/N=c1\sc(C)cn1CCOc1ccc(C2c3[nH]c4ccc(Cl)cc4c3CCN2C(=O)Oc2ccc(Cl)cc2)cc1 (centres unmarked) [Compound 1394] | > 8.10
CS(=O)(=O)CCCOc1ccc([C@H]2c3[nH]c4ccc(Cl)cc4c3CCN2C(=O)Oc2ccc(Cl)cc2)cc1 [Compound 1648] | > 8.10
CCC(CO)(CO)COc1ccc([C@H]2c3[nH]c4ccc(Cl)cc4c3CCN2C(=O)Oc2ccc(F)cc2)cc1 [Compound 1328] | > 8.10
